Key:
Assay in all cases: relative viability (nuclei count vs DMSO), 5 days (fraction); higher = more cells survive
Trametinib + Bortezomib = compound: CC(=O)Nc1cccc(-n2c(=O)n(C3CC3)c(=O)c3c(Nc4ccc(I)cc4F)n(C)c(=O)c(C)c32)c1 [Trametinib] + CC(C)C[C@H](NC(=O)[C@H](Cc1ccccc1)NC(=O)c1cnccn1)B(O)O [Bortezomib] (partner 0.002 µM)
How it was run: (§1)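 Relative viability was taken as the ratio of nuclei in treated wells to nuclei in vehicle wells. Lung cancer cell lines in 1536-well plates received compounds by pin tool one day after seeding, either one drug alone or a fixed anchor-drug dose plus five library-drug doses (not always all listed) in √10 steps. Nuclei were counted on 4× images after 5 days of treatment, and values are medians of duplicate plates.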

[1] = compound: CN1C=C(C2=CC=CC=C21)/C=C\3/C4=C(C=CC=N4)NC3=O + CCNC(=O)c1noc(-c2cc(C(C)C)c(O)cc2O)c1-c1ccc(CN2CCOCC2)cc1 [Luminespib] (partner 0.01 µM)
How it was run: as §1

Trametinib + Pemetrexed = compound: CC(=O)Nc1cccc(-n2c(=O)n(C3CC3)c(=O)c3c(Nc4ccc(I)cc4F)n(C)c(=O)c(C)c32)c1 [Trametinib] + Nc1nc2[nH]cc(CCc3ccc(C(=O)N[C@@H](CCC(=O)O)C(=O)O)cc3)c2c(=O)[nH]1 [Pemetrexed] (partner 0.2 µM)
How it was run: as §1

Trametinib + Palbociclib = compound: CC(=O)Nc1cccc(-n2c(=O)n(C3CC3)c(=O)c3c(Nc4ccc(I)cc4F)n(C)c(=O)c(C)c32)c1 [Trametinib] + CC(=O)c1c(C)c2cnc(Nc3ccc(N4CCNCC4)cn3)nc2n(C2CCCC2)c1=O [Palbociclib] (partner 0.5 µM)
How it was run: as §1

Cell Line	relative viability (Trametinib + Bortezomib; first compound 0.0025 µM)	relative viability (Trametinib + Bortezomib; first compound 0.007906 µM)	relative viability (Trametinib + Bortezomib; first compound 0.025 µM)	relative viability (Trametinib + Bortezomib; first compound 0.07906 µM)	relative viability (Trametinib + Bortezomib; first compound 0.25 µM)	relative viability ([1]; first compound 0.02 µM)	relative viability ([1]; first compound 0.06325 µM)	relative viability ([1]; first compound 0.2 µM)	relative viability ([1]; first compound 0.6325 µM)	relative viability ([1]; first compound 2 µM)	relative viability (Trametinib + Pemetrexed; first compound 0.0025 µM)	relative viability (Trametinib + Pemetrexed; first compound 0.007906 µM)	relative viability (Trametinib + Pemetrexed; first compound 0.025 µM)	relative viability (Trametinib + Pemetrexed; first compound 0.07906 µM)	relative viability (Trametinib + Pemetrexed; first compound 0.25 µM)	relative viability (Trametinib + Palbociclib; first compound 0.0025 µM)	relative viability (Trametinib + Palbociclib; first compound 0.007906 µM)	relative viability (Trametinib + Palbociclib; first compound 0.025 µM)	relative viability (Trametinib + Palbociclib; first compound 0.07906 µM)	relative viability (Trametinib + Palbociclib; first compound 0.25 µM)
201T	1.08	1.01	0.942	1.05	0.801	1.01	1.06	1.12	1.03	1.15	0.394	0.362	0.338	0.341	0.371	0.344	0.321	0.284	0.322	0.272
NCI-H3122	0.985	0.74	0.595	0.432	0.361	0.0819	0.0768	0.0923	0.0892	0.0964	0.187	0.183	0.166	0.149	0.149	0.189	0.158	0.125	0.112	0.101
NCI-H838	0.719	0.563	–	0.557	0.224	0.314	0.336	0.345	0.269	0.325	0.245	0.212	0.229	0.217	0.213	0.207	0.183	0.162	0.159	0.202
NCI-H1755	0.847	0.835	0.806	0.843	0.679	0.376	0.369	0.541	0.37	0.387	0.378	0.452	0.411	0.47	0.397	0.425	0.406	0.384	0.392	0.365
HCC-15	0.946	0.62	0.731	0.492	0.203	0.172	0.344	0.303	0.353	0.36	0.21	0.221	0.227	0.186	0.221	0.704	0.427	0.307	0.232	0.222
NCI-H2087	0.899	0.669	0.446	0.327	0.129	0.173	0.175	0.197	0.151	0.154	0.554	0.642	0.468	0.179	0.281	0.162	0.137	0.127	0.111	0.0967
LCLC-103H	1.16	0.977	0.887	0.821	0.626	0.933	0.809	0.934	1.07	1.17	0.482	0.495	0.523	0.5	0.519	0.484	0.44	0.483	0.468	0.507
NCI-H1650	0.218	0.19	0.182	0.198	0.188	0.19	0.183	0.195	0.203	0.207	0.388	0.324	0.314	0.329	0.216	0.34	0.38	0.34	0.357	0.158
ChaGo-K-1	1.12	0.871	1.05	0.713	0.476	0.54	0.56	0.522	0.482	0.59	0.281	0.253	0.261	0.259	0.248	0.926	0.778	0.912	0.852	0.75
NCI-H1666	0.639	0.591	0.499	0.452	0.401	1	1.04	1.05	0.99	1.04	0.881	0.742	0.753	0.695	0.693	0.695	0.662	0.665	0.66	0.686
EKVX	0.797	0.628	0.6	0.373	0.331	0.79	0.784	0.821	0.865	0.868	0.345	0.381	0.402	0.312	0.358	0.375	0.401	0.173	0.182	0.182
COR-L 105	0.748	0.612	0.389	0.315	0.335	0.634	0.616	0.625	0.804	0.85	0.984	0.825	0.69	0.488	0.42	0.39	0.44	0.421	0.34	0.347
NCI-H322M	1.29	1.14	0.879	1.03	0.717	0.812	0.76	0.798	0.946	0.929	0.581	0.556	0.544	0.417	0.435	0.448	0.428	0.404	0.43	0.431
HARA	1.09	1.06	0.983	0.745	0.0924	0.347	0.951	–	0.558	0.676	0.224	0.226	0.254	0.212	0.219	0.236	0.202	0.205	0.192	0.198
NCI-H2023	0.957	0.791	0.582	0.806	0.212	0.899	0.602	0.763	0.914	0.527	0.205	0.187	0.184	0.189	0.14	0.348	0.3	0.24	0.196	0.119
NCI-H1437	0.463	0.257	0.179	0.205	0.174	1.14	1.08	1.22	1.25	1.24	0.271	0.23	0.265	0.203	0.192	0.319	0.226	0.204	0.196	0.211

Cell Line	relative viability (Trametinib + Bortezomib; first compound 0.0025 µM)	relative viability (Trametinib + Bortezomib; first compound 0.007906 µM)	relative viability (Trametinib + Bortezomib; first compound 0.025 µM)	relative viability (Trametinib + Bortezomib; first compound 0.07906 µM)	relative viability (Trametinib + Bortezomib; first compound 0.25 µM)	relative viability ([1]; first compound 0.02 µM)	relative viability ([1]; first compound 0.06325 µM)	relative viability ([1]; first compound 0.2 µM)	relative viability ([1]; first compound 0.6325 µM)	relative viability ([1]; first compound 2 µM)	relative viability (Trametinib + Pemetrexed; first compound 0.0025 µM)	relative viability (Trametinib + Pemetrexed; first compound 0.007906 µM)	relative viability (Trametinib + Pemetrexed; first compound 0.025 µM)	relative viability (Trametinib + Pemetrexed; first compound 0.07906 µM)	relative viability (Trametinib + Pemetrexed; first compound 0.25 µM)	relative viability (Trametinib + Palbociclib; first compound 0.0025 µM)	relative viability (Trametinib + Palbociclib; first compound 0.007906 µM)	relative viability (Trametinib + Palbociclib; first compound 0.025 µM)	relative viability (Trametinib + Palbociclib; first compound 0.07906 µM)	relative viability (Trametinib + Palbociclib; first compound 0.25 µM)
BEN	0.76	0.725	–	0.531	0.657	0.286	0.394	–	0.357	0.281	0.706	0.752	0.511	0.45	0.646	0.455	0.479	0.455	0.475	0.468
LXF-289	0.872	0.812	0.757	0.703	0.459	0.668	0.662	0.741	0.69	0.785	0.844	0.832	0.688	0.672	0.772	0.526	0.508	0.423	0.429	0.379
NCI-H1993	0.861	0.834	0.558	0.48	0.596	0.828	0.686	0.813	0.67	0.369	0.511	0.566	0.543	0.543	0.453	0.553	0.526	0.548	0.61	0.448
LOU-NH91	0.505	0.489	0.491	0.508	0.334	0.335	0.302	0.352	0.307	0.266	0.403	0.414	0.418	0.374	0.382	0.604	0.524	0.561	0.552	0.453
NCI-H1975	0.303	0.224	0.206	0.173	0.169	0.0911	0.261	0.187	0.338	0.206	0.326	0.284	0.246	0.249	0.226	0.543	0.349	0.506	0.19	0.129
PC-3 [JPC-3]	0.862	0.815	0.837	0.716	0.262	0.628	0.595	0.647	0.682	0.839	0.994	0.782	0.773	–	0.598	0.556	0.581	0.483	–	0.575
NCI-H2126	1.11	0.956	0.685	0.983	0.769	1	0.875	0.852	0.907	0.932	0.647	0.553	0.464	0.538	0.428	0.331	0.346	0.33	0.304	0.349
LU99A	1.08	1.21	0.815	0.726	0.407	0.265	0.255	0.275	0.355	0.28	0.206	0.208	0.203	0.193	0.206	0.401	0.436	0.335	0.355	0.243
NCI-H23	0.853	1.01	0.364	0.377	0.21	0.232	0.178	–	0.194	0.222	0.549	0.47	0.437	0.305	0.264	0.472	0.414	0.268	0.209	0.175
PC-14	0.918	0.834	0.673	0.76	0.594	0.212	0.138	–	0.173	0.135	0.131	0.113	0.153	0.132	0.141	0.46	0.306	0.295	0.214	0.102
HCC-44	0.926	0.905	0.946	0.816	0.585	1.03	0.925	–	1.02	1.02	0.647	0.702	0.734	0.763	0.772	0.974	1.01	1.08	1.03	1.02
A-427	1.1	1.05	0.735	0.763	0.601	0.849	0.902	–	1.08	1.01	1.08	1.1	0.977	0.839	0.679	0.534	0.511	0.45	0.45	0.372
RERF-LC-KJ	0.91	1.02	0.926	0.877	0.661	1.21	1.14	1.22	1.24	1.37	0.481	0.474	0.435	0.494	0.422	1.03	0.857	0.914	0.848	0.66
NCI-H647	0.853	0.75	0.652	0.654	0.294	0.177	0.124	0.192	0.128	0.324	0.188	0.183	0.152	0.155	0.141	0.374	0.344	0.334	0.16	0.108
NCI-H1734	0.901	0.987	–	0.734	0.349	0.212	0.208	–	0.203	0.866	0.418	0.383	–	0.387	0.355	0.337	0.353	–	0.292	0.241
SK-LU-1	1.13	0.815	0.726	0.623	0.326	0.201	0.185	0.191	0.184	0.2	0.951	0.866	0.822	0.582	0.353	0.416	0.319	0.307	0.296	0.259
